Measured values published in US20260285850A1, “SUBSTITUTED OXAZOLIDINONES AND IMIDAZOLINONES AS HERBICIDES” (FMC CORPORATION, priority 2023, published 2026).

How the values were obtained:
Assay type in all cases: in vivo
[1] = test system: barnyardgrass (Echinochloa crus-galli); assay: Test A preemergence soil spray, visual injury rating 0-100; conditions: 10 days
Method in brief: (§1)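 Seeds sown in loam-sand blend got a preemergence directed soil spray, or emerged plants (2-10 cm, one- to two-leaf) got a postemergence spray, of compound in non-phytotoxic solvent with surfactant. After 10 days in greenhouse, injury rated visually versus untreated controls on a 0 (no effect) to 100 (complete control) scale.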

[2] = test system: blackgrass (Alopecurus myosuroides); assay: as above; conditions: 10 days
Method in brief: as §1

corn (Zea mays) [3] = assay: as above; conditions: 10 days
Method in brief: as §1

[4] = test system: green foxtail (Setaria viridis); assay: as above; conditions: 10 days
Method in brief: as §1

kochia (Bassia scoparia) [5] = assay: as above; conditions: 10 days
Method in brief: as §1

[6] = test system: oat, wild (wild oat, Avena fatua); assay: as above; conditions: 10 days
Method in brief: as §1

[7] = test system: palmer (palmer amaranth, palmer pigweed, Amaranthus palmeri); assay: as above; conditions: 10 days
Method in brief: as §1

[8] = test system: ragweed (common ragweed, Ambrosia artemisiifolia); assay: as above; conditions: 10 days
Method in brief: as §1

[9] = test system: ryegrass, Italian (italian ryegrass, Lolium multiflorum); assay: as above; conditions: 10 days
Method in brief: as §1

soybean (Glycine max) [10] = assay: as above; conditions: 10 days
Method in brief: as §1

[11] = test system: wheat (Triticum aestivum); assay: as above; conditions: 10 days
Method in brief: as §1

[12] = test system: barnyardgrass (Echinochloa crus-galli); assay: Test A postemergence application, visual injury rating 0-100
Method in brief: as §1

[13] = test system: blackgrass (Alopecurus myosuroides); assay: as above
Method in brief: as §1

corn (Zea mays) [14] = assay: as above
Method in brief: as §1

[15] = test system: galium (catchweed bedstraw, Galium aparine); assay: as above
Method in brief: as §1

[16] = test system: green foxtail (Setaria viridis); assay: as above
Method in brief: as §1

kochia (Bassia scoparia) [17] = assay: as above
Method in brief: as §1

[18] = test system: oat, wild (wild oat, Avena fatua); assay: as above
Method in brief: as §1

[19] = test system: palmer (palmer amaranth, palmer pigweed, Amaranthus palmeri); assay: as above
Method in brief: as §1

[20] = test system: ragweed (common ragweed, Ambrosia artemisiifolia); assay: as above
Method in brief: as §1

[21] = test system: ryegrass, Italian (italian ryegrass, Lolium multiflorum); assay: as above
Method in brief: as §1

soybean (Glycine max) [22] = assay: as above
Method in brief: as §1

[23] = test system: wheat (Triticum aestivum); assay: as above
Method in brief: as §1

[24] = test system: barnyardgrass (Echinochloa crusgalli); assay: Test B flooded paddy test, visual plant response rating 0-100; conditions: 250 g ai/ha, Flood, applied to paddy water, evaluated after 13 days
Method in brief: (§2)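 Visual evaluation after 13 days. Water-applied treatment, 3 cm flood depth held constant, plants at 2-leaf stage at treatment.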

[25] = test system: ducksalad (Heteranthera limosa); assay: as above; conditions: 250 g ai/ha, Flood, applied to paddy water, evaluated after 13 days
Method in brief: as §2

rice (Oryza sativa) = assay: as above; conditions: 250 g ai/ha, Flood, applied to paddy water, evaluated after 13 days
Method in brief: as §2

[26] = test system: sedge, umbrella (small-flower umbrella sedge, Cyperus difformis); assay: as above; conditions: 250 g ai/ha, Flood, applied to paddy water, evaluated after 13 days
Method in brief: as §2

[27] = 62 g ai/ha, 0 = no effect, 100 = complete control
[28] = 62 g ai/ha, postemergence, 10 days, 0 = no effect, 100 = complete control
[29] = Postemergence, 16 g ai/ha, greenhouse 10 days, 0 no effect, 100 complete control

C=CC1(C(=O)NC2COC(C(=O)OC)C2)CN(c2cc(F)cc(F)c2)C(=O)O1 (centres unmarked) [Compound 171]
Barnyardgrass plant response rating ([1]; 16 g ai/ha, 0 to 100 scale): 0 | Barnyardgrass plant response rating (0-100) [1, 27]: 90 | Blackgrass plant response rating ([2]; 16 g ai/ha, 0 to 100 scale): 20 | Blackgrass plant response rating (0-100) [2, 27]: 90 | Corn plant response rating (corn (Zea mays) [3]; 16 g ai/ha, 0 to 100 scale): 0 | Corn plant response rating (0-100) (corn (Zea mays) [3]; [27]): 40 | Foxtail, Green plant response rating ([4]; 16 g ai/ha, 0 to 100 scale): 0 | Foxtail, Green plant response rating (0-100) [4, 27]: 90 | Kochia plant response rating (kochia (Bassia scoparia) [5]; 16 g ai/ha, 0 to 100 scale): 30 | Kochia plant response rating (0-100) (kochia (Bassia scoparia) [5]; [27]): 40 | Oat, Wild plant response rating ([6]; 16 g ai/ha, 0 to 100 scale): 20 | Oat, Wild plant response rating (0-100) [6, 27]: 90 | Pigweed, Palmer plant response rating ([7]; 16 g ai/ha, 0 to 100 scale): 0 | Pigweed, Palmer plant response rating (0-100) [7, 27]: 70 | Ragweed plant response rating ([8]; 16 g ai/ha, 0 to 100 scale): 0 | Ragweed plant response rating (0-100) [8, 27]: 0 | Ryegrass, Italian plant response rating ([9]; 16 g ai/ha, 0 to 100 scale): 20 | Ryegrass, Italian plant response rating (0-100) [9, 27]: 90 | Soybean plant response rating (soybean (Glycine max) [10]; 16 g ai/ha, 0 to 100 scale): 0 | Soybean plant response rating (0-100) (soybean (Glycine max) [10]; [27]): 20 | Wheat plant response rating ([11]; 16 g ai/ha, 0 to 100 scale): 60 | Wheat plant response rating (0-100) [11, 27]: 90 | Barnyardgrass plant response rating (0-100) [12, 28]: 80 | Barnyardgrass plant response rating (0 to 100 scale) [12, 29]: 70 | Blackgrass plant response rating (0-100) [13, 28]: 70 | Blackgrass plant response rating (0 to 100 scale) [13, 29]: 70 | Corn plant response rating (0-100) (corn (Zea mays) [14]; [28]): 90 | Corn plant response rating (0 to 100 scale) (corn (Zea mays) [14]; [29]): 80 | Galium plant response rating (0-100) [15, 28]: 80 | Galium plant response rating (0 to 100 scale) [15, 29]: 80 | Foxtail, Green plant response rating (0-100) [16, 28]: 90 | Foxtail, Green plant response rating (0 to 100 scale) [16, 29]: 80 | Kochia plant response rating (0-100) (kochia (Bassia scoparia) [17]; [28]): 80 | Kochia plant response rating (0 to 100 scale) (kochia (Bassia scoparia) [17]; [29]): 60 | Oat, Wild plant response rating (0-100) [18, 28]: 90 | Oat, Wild plant response rating (0 to 100 scale) [18, 29]: 90 | Pigweed, Palmer plant response rating (0-100) [19, 28]: 80 | Pigweed, Palmer plant response rating (0 to 100 scale) [19, 29]: 60 | Ragweed plant response rating (0-100) [20, 28]: 30 | Ragweed plant response rating (0 to 100 scale) [20, 29]: 30 | Ryegrass, Italian plant response rating (0-100) [21, 28]: 70 | Ryegrass, Italian plant response rating (0 to 100 scale) [21, 29]: 20 | Soybean plant response rating (0-100) (soybean (Glycine max) [22]; [28]): 80 | Soybean plant response rating (0 to 100 scale) (soybean (Glycine max) [22]; [29]): 70 | Wheat plant response rating (0-100) [23, 28]: 90 | Wheat plant response rating (0 to 100 scale) [23, 29]: 80 | Plant response rating, Barnyardgrass (0 to 100 scale, 0 is no effect and 100 is complete control) [24]: 60 | Plant response rating, Ducksalad (0 to 100 scale, 0 is no effect and 100 is complete control) [25]: 50 | Plant response rating, Rice (0 to 100 scale, 0 is no effect and 100 is complete control) (rice (Oryza sativa)): 45 | Plant response rating, Sedge, Umbrella (0 to 100 scale, 0 is no effect and 100 is complete control) [26]: 45
